# Results from US20230357179A1, “RAF KINASE INHIBITORS AND METHODS OF USE THEREOF” (Deciphera Pharmaceuticals, LLC, priority 2021, published 2023).
# Experiments:
# B-Raf (V600E) kinase = biological target: T1, B-Raf (V600E) kinase (Homo sapiens, UniProt P15056, V600E); assay: Biochemical assay for B-Raf (V600E).1 (coupled pyruvate kinase/lactate dehydrogenase); settings: read-out: BRAF V600E.1 IC50
# T1 construct: B-Raf (V600E) residues 416-766 with a; GST (N); purchased SignalChem
# Experimental: Biochemical Assay for B-Raf (V600E).1
# Activity of B-Raf (V600E) (SEQ. ID NO: 4) kinase was determined spectroscopically using a coupled pyruvate kinase/lactate dehydrogenase assay that continuously monitors the ATP hydrolysis-dependent oxidation of NADH (e.g., Schindler et al., Science, 2000, 289, 1938-1942). Assays were conducted in 384-well plates (100 μL final volume) using 0.03 nM B-Raf (SignalChem), 1.5 units pyruvate kinase, 2.1 units lactate dehydrogenase, 1 mM phosphoenol pyruvate, 0.28 mM NADH, 30.1 nM MEK (SignalChem), and 1 mM ATP in assay buffer (100 mM Tris, pH 7.5, 15 mM MgCl2, 0.5 mM DTT, 0.1% octyl-glucoside, 0.002% (w/v) BSA, and 0.002% Triton X-100). Inhibition of B-Raf (V600E) was measured by adding serial diluted test compound (final assay concentration of 1% DMSO). A decrease in absorption at 340 nm was monitored continuously for 6 h at 30° C. on a multi-mode microplate reader (BioTek). The reaction rate was calculated using the 3 to 4 h time frame. The reaction rate at each concentration of compound was converted to percent inhibition using controls (i.e., reaction with no test compound and reaction with a known inhibitor) and IC50 values were calculated by fitting a four-parameter sigmoidal curve to the data using Prism (GraphPad software).
# C-Raf kinase = biological target: T2, C-Raf kinase (Homo sapiens, UniProt P04049, Y340D/Y341D); assay: Biochemical assay for C-Raf.1 (coupled pyruvate kinase/lactate dehydrogenase); settings: read-out: CRAF.1 IC50
# T2 construct: Y340D,; GST (N); purchased Sigma
# T2 sequence (P04049 307-648 Y340D/Y341D): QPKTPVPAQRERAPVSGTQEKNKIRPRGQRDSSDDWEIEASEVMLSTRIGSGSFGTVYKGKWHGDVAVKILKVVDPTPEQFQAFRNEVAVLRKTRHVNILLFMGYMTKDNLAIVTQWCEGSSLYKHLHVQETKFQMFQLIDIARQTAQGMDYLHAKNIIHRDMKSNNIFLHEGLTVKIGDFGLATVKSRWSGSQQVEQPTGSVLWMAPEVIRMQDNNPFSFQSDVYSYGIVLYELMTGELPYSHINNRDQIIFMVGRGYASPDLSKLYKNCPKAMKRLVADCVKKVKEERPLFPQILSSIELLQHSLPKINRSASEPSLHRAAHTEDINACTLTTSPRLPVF
# Experimental: Biochemical Assay for C-Raf.1
# (§1) Activity of C-Raf kinase (SEQ. ID NO: 3) was determined spectroscopically using a coupled pyruvate kinase/lactate dehydrogenase assay that continuously monitors the ATP hydrolysis-dependent oxidation of NADH (e.g., Schindler et al., Science, 2000, 289, 1938-1942). Assays were conducted in 384-well plates (100 μL final volume) using 0.43 nM C-Raf (Sigma), 1.5 units pyruvate kinase, 2.1 units lactate dehydrogenase, 1 mM phosphoenol pyruvate, 0.28 mM NADH, 30.1 nM MEK (SignalChem), and 1 mM ATP in assay buffer (100 mM Tris, pH 7.5, 15 mM MgCl2, 0.5 mM DTT, 0.1% octyl-glucoside, 0.002% (w/v) BSA, and 0.002% Triton X-100). Inhibition of C-Raf was measured by adding serial diluted test compound (final assay concentration of 1% DMSO). A decrease in absorption at 340 nm was monitored continuously for 6 h at 30° C. on a multi-mode microplate reader (BioTek). The reaction rate was calculated using the 4 to 5 h time frame. The reaction rate at each concentration of compound was converted to percent inhibition using controls (i.e., reaction with no test compound and reaction with a known inhibitor) and IC50 values were calculated by fitting a four-parameter sigmoidal curve to the data using Prism (GraphPad software).
# A-Raf kinase = biological target: T3, A-Raf kinase (Homo sapiens, UniProt P10398, Y301D/Y302D); assay: Biochemical assay for A-Raf.1 (coupled pyruvate kinase/lactate dehydrogenase); settings: read-out: ARAF.1 IC50
# T3 construct: purchased Sigma
# T3 sequence (P10398 with tags, fused parts or gaps Y301D/Y302D): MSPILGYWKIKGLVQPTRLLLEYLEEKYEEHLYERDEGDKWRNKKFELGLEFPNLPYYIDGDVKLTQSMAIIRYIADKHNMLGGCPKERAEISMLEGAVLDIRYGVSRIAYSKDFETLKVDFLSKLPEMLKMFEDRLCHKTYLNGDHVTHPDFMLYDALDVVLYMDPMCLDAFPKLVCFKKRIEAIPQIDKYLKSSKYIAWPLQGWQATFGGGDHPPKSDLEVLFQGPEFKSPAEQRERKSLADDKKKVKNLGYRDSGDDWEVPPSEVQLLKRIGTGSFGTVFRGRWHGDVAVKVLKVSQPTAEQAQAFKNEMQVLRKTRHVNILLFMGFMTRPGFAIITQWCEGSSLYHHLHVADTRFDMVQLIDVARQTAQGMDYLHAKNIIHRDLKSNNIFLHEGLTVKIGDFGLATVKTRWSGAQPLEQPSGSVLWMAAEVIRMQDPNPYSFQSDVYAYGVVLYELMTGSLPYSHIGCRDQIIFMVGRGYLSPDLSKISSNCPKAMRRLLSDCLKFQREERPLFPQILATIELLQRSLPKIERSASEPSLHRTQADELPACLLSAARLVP
# Experimental: Biochemical assay for A-Raf.1
# as §1, with “A-Raf” for “C-Raf”, “NO. 1)” for “NO: 3)”, “5.55” for “0.43”
# A375 cells = assay: A375 cell proliferation assay (1), resazurin, 96-well; type: cell-based; settings: Homo sapiens, A-375, inhibition of cell proliferation
# Experimental: A375 Cell Proliferation Assay (1)
# A375 cells (catalog (#CRL-1619) are obtained from the American Type Culture Collect (ATTC, Manassas, VA). Briefly, cells were grown in DMEM High Glucose supplemented with 10% characterized fetal bovine serum (Invitrogen, Carlsbad, CA) and 1% Penicillin/Streptomycin/L-Glutamine at 37° C., 5% CO2, and 95% humidity. Cells are expanded until reaching 70-95% confluency at which point they are sub-cultured or harvested for assay use. A serial dilution of test compound is dispensed into a 96-well black clear bottom plate in triplicate. Two thousand five hundred cells are added per well in 200 μL complete growth medium in the 96-well plate. Plates are incubated for 67-72 hours at 37° C., 5% CO2, and 95% humidity. At the end of the incubation, 40 μL of a 440 μM solution of resazurin (Sigma, St. Louis, MO) in PBS is added to each well of the plate and plates are incubated for an additional 5-6 hours at 37° C., 5% CO2, and 95% humidity. Plates are read on a Synergy2 or equivalent reader (Biotek, Winooski VT) using an excitation of 540 nm and an emission of 600 nm. Data is analyzed using Prism software (GraphPad, San Diego, CA) to calculate IC50 values.
# B-Raf kinase = biological target: T4, B-Raf kinase (Homo sapiens, UniProt P15056); assay: Biochemical assay for B-Raf.1 (coupled pyruvate kinase/lactate dehydrogenase); settings: read-out: BRAF.1 IC50
# T4 construct: GST (N); purchased Sigma
# T4 sequence (P15056 416-766): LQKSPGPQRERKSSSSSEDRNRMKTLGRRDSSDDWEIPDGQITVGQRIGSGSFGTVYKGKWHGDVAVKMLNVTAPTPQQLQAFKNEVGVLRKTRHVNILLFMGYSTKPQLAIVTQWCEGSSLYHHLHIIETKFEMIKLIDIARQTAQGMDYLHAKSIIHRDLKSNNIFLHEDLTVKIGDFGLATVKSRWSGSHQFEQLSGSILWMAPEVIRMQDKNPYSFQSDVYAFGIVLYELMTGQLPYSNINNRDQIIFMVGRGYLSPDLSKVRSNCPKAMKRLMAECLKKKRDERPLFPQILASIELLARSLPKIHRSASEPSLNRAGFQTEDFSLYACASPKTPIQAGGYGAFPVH
# Experimental: Biochemical Assay for B-Raf.1
# as §1, with “B-Raf” for “C-Raf”, “2)” for “3)”, “0.13” for “0.43”
# T1 sequence (P15056 416-766 V600E): as the sequence (P15056 416-766) above, with V185E counted along it
SMILES,IC50 (B-Raf (V600E) kinase),IC50 (C-Raf kinase),IC50 (A-Raf kinase),IC50 (A375 cells),IC50 (B-Raf kinase)
COC1(CCNC(=O)Nc2cc(-c3ccnc(-c4ccnc(NC(=O)C5CC5)c4)c3)c(C)cc2F)CC1 [Example 116],≤ 100 nM,≤ 100 nM,100 to 500 nM,1000 to 10000 nM,≤ 100 nM
Cc1cc(F)c(NC(=O)NCCC2(C)CC2)cc1-c1cc(OC2CCN(C)CC2)nc(-c2ccncc2)c1 [Example 36],≤ 100 nM,100 to 500 nM,> 1000 nM,1000 to 10000 nM,100 to 500 nM
Cc1ccc(NC(=O)N[C@H]2CCc3ccccc32)cc1-c1cc(OCCO)nc(N2CCOCC2)c1 [Example 20],≤ 100 nM,100 to 500 nM,> 1000 nM,500 to 1000 nM,500 to 1000 nM
CCNC(=O)Nc1cc(-c2cc(OCCO)nc(-c3ccnc(NC(=O)C4CC4)c3)c2)c(C)cc1F [Example 98],≤ 100 nM,≤ 100 nM,> 1000 nM,1000 to 10000 nM,100 to 500 nM
Cc1cc(F)c(NC(=O)NC2CCC(F)(F)CC2)cc1-c1cc(-c2cnn(C)c2)nc(N2CCOCC2)c1 [Example 39],≤ 100 nM,≤ 100 nM,> 1000 nM,1000 to 10000 nM,≤ 100 nM
CC(=O)Nc1cc(-c2cc(-c3cc(NC(=O)NCCC(C)(C)C(F)(F)F)c(F)cc3C)cc(C3CC3)n2)ccn1 [Example 56],≤ 100 nM,≤ 100 nM,> 1000 nM,500 to 1000 nM,≤ 100 nM
Cc1cc(F)c(NC(=O)NCCC2(C)CC2)cc1-c1nc(NCCO)cc(N2CCOCC2)n1 [Example 31],≤ 100 nM,100 to 500 nM,> 1000 nM,1000 to 10000 nM,100 to 500 nM
CNc1cc(-c2cc(-c3cc(NC(=O)NCCC4(C(F)(F)F)CC4)c(F)cc3C)cc(OCCO)n2)ccn1 [Example 28],≤ 100 nM,≤ 100 nM,> 1000 nM,100 to 500 nM,100 to 500 nM
Cc1ccc(NC(=O)NC2CCCCCC2)cc1-c1cc(OCCO)nc(N2CCOCC2)c1 [Example 13],≤ 100 nM,≤ 100 nM,> 1000 nM,1000 to 10000 nM,100 to 500 nM
Cc1ccc(NC(=O)NCCC(C)(C)C#N)cc1-c1cc(-c2cnn(C)c2)nc(N2CCOCC2)c1 [Example 21],≤ 100 nM,100 to 500 nM,> 1000 nM,1000 to 10000 nM,500 to 1000 nM
Cc1ccc(NC(=O)N[C@@H]2CCc3ccccc32)cc1-c1cc(OCCO)nc(N2CCOCC2)c1 [Example 15],≤ 100 nM,≤ 100 nM,> 1000 nM,1000 to 10000 nM,100 to 500 nM
Cc1cc(F)c(NC(=O)NCCC2(C)CC2)cc1-c1cc(OCCO)nc(-c2ccncc2)c1 [Example 32],≤ 100 nM,≤ 100 nM,> 1000 nM,1000 to 10000 nM,≤ 100 nM
Cc1cc(F)c(NC(=O)NCCC(C)(C)F)cc1-c1cc(OCCO)nc(-c2ccncc2)c1 [Example 25],≤ 100 nM,≤ 100 nM,> 1000 nM,1000 to 10000 nM,100 to 500 nM
Cc1cc(F)c(NC(=O)NCCC2(C(F)(F)F)CC2)cc1-c1cc(N2CCOCC2)nc(N2CC(N(C)C)C2)n1 [Example 30],≤ 100 nM,500 to 1000 nM,> 1000 nM,1000 to 10000 nM,> 1000 nM
Cc1cc(F)c(NC(=O)NCCC2(C(F)(F)F)CC2)cc1-c1cc(N2CCOCC2)nc(N2CC[C@H](N(C)C)C2)c1 [Example 26],≤ 100 nM,100 to 500 nM,> 1000 nM,1000 to 10000 nM,100 to 500 nM
COC(C)(C)CCNC(=O)Nc1cc(-c2cc(OCCO)nc(-c3ccncc3)c2)c(C)cc1F [Example 40],≤ 100 nM,100 to 500 nM,> 1000 nM,1000 to 10000 nM,100 to 500 nM
Cc1cc(F)c(NC(=O)N2CCC(C)(C#N)C2)cc1-c1cc(OCCO)nc(-c2ccnc3[nH]ncc23)c1 (stereo not shown) [Example 95],≤ 100 nM,500 to 1000 nM,> 1000 nM,1000 to 10000 nM,500 to 1000 nM
Cc1cc(F)c(NC(=O)Nc2cnn(C(C)(C)C)c2)cc1-c1cc(OCCN(C)C)nc(N2CCOCC2)c1 [Example 29],≤ 100 nM,100 to 500 nM,> 1000 nM,1000 to 10000 nM,500 to 1000 nM
Cc1ccc(NC(=O)NCCC2(C)CC2)cc1-c1cc(-c2cnn(C)c2)nc(N2CCOCC2)c1 [Example 37],≤ 100 nM,≤ 100 nM,> 1000 nM,1000 to 10000 nM,≤ 100 nM
"CC(=O)Nc1cc(-c2cc(-c3cc(NC(=O)NCCC4(C)CC4)c(F)cc3C)ccn2)ccn1 [Example 2, N-(4-(4-fluoro-2-methyl-5-(3-(2-(1-methylcyclopropyl)ethyl)ureido)phenyl)-[2,4′-bipyridin]-2′-yl)acetamide]",≤ 100 nM,100 to 500 nM,> 1000 nM,1000 to 10000 nM,500 to 1000 nM
